System: native tau aggregates
Test: TAU radioligand in vitro displacement assay ([3H]T808 autoradiography on human AD brain sections)
Format: binding
Conditions: radioligand [3H]T808 10 nM, 50 mM Tris pH 7.4, room temperature, 30 min; for % displacement of [3H]T808 (10 nM) at 10 nM: compound 10 nM; for % displacement of [3H]T808 (10 nM) at 1 uM: compound 1 uM
Method: TAU Radioligand-In-Vitro Displacement Assay
This in vitro binding assay assesses the affinity of compounds for native tau aggregates. The compounds are co-incubated with the well-established tau specific radioligand [^3H]T808 and the compound's displacement potency of [^3H]T808 binding is determined by in vitro autoradiography using human Alzheimer's disease (AD) brain sections (FIG. 1).
AD human brains are purchased from Banner Sun Health Research Institute (Sun City, Ariz., USA). Pathological diagnosis of AD is made according to standard NIA-Reagan Institute criteria based on neuropathological data. The radioligand [^3H]T808 was synthesized in-house ([^3H]-2-[4-(2-Fluoro-ethyl)-piperidin-1-yl]-benzo[4,5]imidazo[1,2-a]pyrimidine, radiochemical purity 99.0%). As a reference cold T808 is used (2-[4-(2-Fluoro-ethyl)-piperidin-1-yl]-benzo[4,5]imidazo[1,2-a]pyrimidine). For the autoradiography FujiFilm Imaging Plates (BAS-IP TR 2025) are exposed to the sections and read with a FujiFilm IP reader (BAS-5000).
Ten μm thick human AD brain sections are generated with a cryostat (Leica CM3050) at −17° C. chamber temperature and −15° C. object temperature. Sections are transferred to Histobond+microscope slides (Marienfeld Laboratory Glasware). After drying for 3 hours at room temperature the sections are stored at −20° C. The sections are incubated with the radioligand (10 nM) and the respective cold compound (at various concentrations) in 50 mM Tris buffer, pH 7.4 at room temperature for 30 min. After washing 3×10 min at 4° C. in 50 mM Tris buffer, pH 7.4 and 3 quick dips in H2O dist. at 4° C. the sections are dried at 4° C. for 3 h. The sections are placed in a FujiFilm Cassette (BAS 2025), exposed with an Imaging Plate for five days and afterwards scanned with a resolution of […].
The signal intensity (Dens—PSL/mm2) in the region of interest (ROI) of the autoradiogram is quantified with the software MCID analysis (version 7.0, Imaging Research Inc.). The specific binding (SB) of [^3H]T808 binding in absence or in presence of a compound is calculated by subtracting the non-specific binding signal in the white matter, thus yielding SB[3H]T808 only and SBcompund. The % displacement by the various compounds is calculated as following: % displacement=100−(SBcompund/SB[3H]T808 only)*100.
In each experiment cold T808 is used as a positive internal control. Co-incubation of equimolar amounts of hot and cold T808 is expected to reduce specific binding by approximately 50%.

Row | SMILES | % displacement of [3H]T808 (10 nM) at 10 nM [%] | % displacement of [3H]T808 (10 nM) at 1 uM [%]
1 | CNc1ccn2cc(-c3ccccc3)nc2n1 [Example 1, N-Methyl-2-phenylimidazo[1,2-a]pyrimidin-7-amine] | 37 | 
2 | FC1CCN(c2ccn3cc(-c4ccccc4)nc3n2)CC1 [Example 2, 7-(4-Fluoropiperidin-1-yl)-2-phenylimidazo[1,2-a]pyrimidine] | 19 | 72
3 | COc1ccc(-c2cn3ccc(N4CCC(F)CC4)nc3n2)cc1 [Example 3, 7-(4-Fluoropiperidin-1-yl)-2-(4-methoxyphenyl)imidazo[1,2-a]pyrimidine] | 31 | 87
4 | FC1CCN(c2ccn3cc(-c4ccc(Cl)cc4)nc3n2)CC1 [Example 4, 2-(4-Chlorophenyl)-7-(4-fluoropiperidin-1-yl)imidazo[1,2-a]pyrimidine] |  | 58
5 | COc1cccc(-c2cn3ccc(N4CCC(F)CC4)nc3n2)c1 [Example 5, 7-(4-Fluoropiperidin-1-yl)-2-(3-methoxyphenyl)imidazo[1,2-a]pyrimidine] | 33 | 74
6 | Fc1ccc(-c2cn3ccc(N4CCC(F)CC4)nc3n2)cc1 [Example 6, 2-(4-Fluorophenyl)-7-(4-fluoropiperidin-1-yl)imidazo[1,2-a]pyrimidine] |  | 65
7 | FC1CCN(c2ccn3cc(-c4ccc5c(c4)OCO5)nc3n2)CC1 [Example 7, 2-(1,3-Benzodioxol-5-yl)-7-(4-fluoropiperidin-1-yl)imidazo[1,2-a]pyrimidine] | 21 | 75
8 | FC1CCN(c2ccn3cc(-c4ccc5c(c4)OCCO5)nc3n2)CC1 [Example 8, 2-(2,3-Dihydro-1,4-benzodioxin-6-yl)-7-(4-fluoropiperidin-1-yl)imidazo[1,2-a]pyrimidine] |  | 72
9 | FC1CCN(c2ccn3cc(-c4ccc(N5CCOCC5)cc4)nc3n2)CC1 [Example 9, 4-[4-[7-(4-Fluoropiperidin-1-yl)imidazo[1,2-a]pyrimidin-2-yl]phenyl]morpholine] |  | 75
10 | Cc1cccc(-c2cn3ccc(N4CCC(F)CC4)nc3n2)c1 [Example 10, 7-(4-Fluoropiperidin-1-yl)-2-(3-methylphenyl)imidazo[1,2-a]pyrimidine] |  | 79
11 | Cc1ccc(-c2cn3ccc(N4CCC(F)CC4)nc3n2)cc1 [Example 11, 7-(4-Fluoropiperidin-1-yl)-2-(4-methylphenyl)imidazo[1,2-a]pyrimidine] | 4 | 81
12 | Fc1ccccc1-c1cn2ccc(N3CCC(F)CC3)nc2n1 [Example 12, 2-(2-Fluorophenyl)-7-(4-fluoropiperidin-1-yl)imidazo[1,2-a]pyrimidine] |  | 50
13 | Oc1cccc(-c2cn3ccc(N4CCC(F)CC4)nc3n2)c1 [Example 13, 3-[7-(4-Fluoropiperidin-1-yl)imidazo[1,2-a]pyrimidin-2-yl]phenol] |  | 67
14 | FC1CCN(c2ccn3cc(-c4ccc(N5CCCC5)cc4)nc3n2)CC1 [Example 14, 7-(4-Fluoropiperidin-1-yl)-2-(4-pyrrolidin-1-ylphenyl)imidazo[1,2-a]pyrimidine] | 18 | 75
15 | FC1CCN(c2ccn3cc(-c4cccc(OC(F)(F)F)c4)nc3n2)CC1 [Example 15, 7-(4-Fluoropiperidin-1-yl)-2-[3-(trifluoromethoxy)phenyl]imidazo[1,2-a]pyrimidine] | 14 | 
16 | FCOc1cccc(-c2cn3ccc(N4CCCC4)nc3n2)c1 [Example 16, 2-[3-(Fluoromethoxy)phenyl]-7-pyrrolidin-1-ylimidazo[1,2-a]pyrimidine] | 27 | 88

Row | SMILES | % displacement of [3H]T808 (10 nM) at 10 nM [%] | % displacement of [3H]T808 (10 nM) at 1 uM [%]
17 | FCCOc1cccc(-c2cn3ccc(N4CCCC4)nc3n2)c1 [Example 17, 2-[3-(2-Fluoroethoxy)phenyl]-7-pyrrolidin-1-ylimidazo[1,2-a]pyrimidine] |  | 76
18 | CN(C)c1ccn2cc(-c3ccccc3)nc2n1 [Example 18, N,N-Dimethyl-2-phenylimidazo[1,2-a]pyrimidin-7-amine] | 35 | 92
19 | COc1ccc(-c2cn3ccc(N4CCN(CCF)CC4)nc3n2)cc1.Cl [Example 19, 7-[4-(2-Fluoroethyl)piperazin-1-yl]-2-(4-methoxyphenyl)imidazo[1,2-a]pyrimidine hydrochloride] |  | 74
20 | COc1cccc(-c2cn3ccc(N4CCN(CCF)CC4)nc3n2)c1.Cl [Example 20, 7-[4-(2-Fluoroethyl)piperazin-1-yl]-2-(3-methoxyphenyl)imidazo[1,2-a]pyrimidine hydrochloride] |  | 51
21 | CN(CCF)c1ccn2cc(-c3ccccc3)nc2n1 [Example 21, N-(2-Fluoroethyl)-N-methyl-2-phenylimidazo[1,2-a]pyrimidin-7-amine] |  | 84
22 | COc1cccc(-c2cn3ccc(N(C)CCF)nc3n2)c1 [Example 22, N-(2-Fluoroethyl)-2-(3-methoxyphenyl)-N-methylimidazo[1,2-a]pyrimidin-7-amine] |  | 82
23 | COc1ccc(-c2cn3ccc(N(C)CCF)nc3n2)cc1 [Example 23, N-(2-Fluoroethyl)-2-(4-methoxyphenyl)-N-methylimidazo[1,2-a]pyrimidin-7-amine] | 33 | 92
24 | Cl.FCCN1CCN(c2ccn3cc(-c4ccccc4)nc3n2)CC1 [Example 24, 7-[4-(2-Fluoroethyl)piperazin-1-yl]-2-phenylimidazo[1,2-a]pyrimidine hydrochloride] |  | 64
25 | COc1ccc(-c2cn3ccc(N4CCOCC4)nc3n2)cc1 [Example 25, 4-[2-(4-Methoxyphenyl)imidazo[1,2-a]pyrimidin-7-yl]morpholine] | 16 | 
26 | Cc1cccc(-c2cn3ccc(N4CCOCC4)nc3n2)c1 [Example 26, 4-[2-(3-Methylphenyl)imidazo[1,2-a]pyrimidin-7-yl]morpholine] | 13 | 
27 | COc1ccc(-c2cn3ccc(N4CCOCC4)nc3n2)cc1OC [Example 27, 4-[2-(3,4-Dimethoxyphenyl)imidazo[1,2-a]pyrimidin-7-yl]morpholine] | 17 | 
28 | Oc1ccc(-c2cn3ccc(N4CCCC4)nc3n2)cc1 [Example 28, 4-(7-Pyrrolidin-1-ylimidazo[1,2-a]pyrimidin-2-yl)phenol] | 22 | 
29 | FCCOc1ccc(-c2cn3ccc(N4CCCC4)nc3n2)cc1 [Example 29, 2-[4-(2-Fluoroethoxy)phenyl]-7-pyrrolidin-1-ylimidazo[1,2-a]pyrimidine] | 15 | 
30 | FCOc1ccc(-c2cn3ccc(N4CCCC4)nc3n2)cc1 [Example 30, 2-[4-(Fluoromethoxy)phenyl]-7-pyrrolidin-1-ylimidazo[1,2-a]pyrimidine] | 9 | 
31 | CO[C@@H]1CCN(c2ccn3cc(-c4ccccc4)nc3n2)C1 [Example 31, 7-[(3R)-3-Methoxypyrrolidin-1-yl]-2-phenylimidazo[1,2-a]pyrimidine] | 7 | 
32 | CO[C@H]1CCN(c2ccn3cc(-c4ccccc4)nc3n2)C1 [Example 32, 7-[(3S)-3-Methoxypyrrolidin-1-yl]-2-phenylimidazo[1,2-a]pyrimidine] | 13 | 
